Some test systems named below: NCI-H23; UACC-257; PC-3; 786-0; KM12; OVCAR-8; HCC 2998; HOP-62; Malme-3M; SF-295; SW-620; UO-31; T47D; ACHN; RXF 393; NCI-H460; A498; A549; SNB-19; HL-60.
Assay in all cases: DTP human tumour cell line panel, 48 h

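Briefly, cells in 96-well plates were exposed to five compound concentrations for 48 h, and endpoints were estimated by linear interpolation. GI50 is the concentration that inhibits growth by half.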 Active and inactive are the calls of the source. No stated cut-off is given here; in the data, active = GI50 up to about 1.1 µM and inactive = higher.

Broadly, the GI50 is the concentration that inhibits growth by half. Regarding `Cn1c(=O)c2ccccc2c2ccccc21`, the GI50 in the assay on NCI-H23 is 69.7 µM (inactive); with UACC-257 it was 81.1 µM (inactive); in the assay on PC-3, 71.6 µM (inactive); in the assay with 786-0 it was 45.6 µM (inactive); in the assay on KM12, 72.9 µM (inactive); in the assay on OVCAR-8, 45.9 µM (inactive). The GI50 is 56.8 µM (inactive) in the assay on HCC 2998; 65.8 µM (inactive) in the assay with HOP-62; 46 µM (inactive) with Malme-3M; 48.4 µM (inactive) with SF-295; 45.2 µM (inactive) in the assay with SW-620; 42.4 µM (inactive) with UO-31. Moreover, the GI50 in the assay with T47D was 57.8 µM (inactive); in the assay on ACHN, 33 µM (inactive); in the assay on RXF 393, 40.6 µM (inactive); in the assay on NCI-H460, 29.3 µM (inactive); in the assay with A498 it was 30.8 µM (inactive); in the assay on A549 it was 53.8 µM (inactive). Also, the GI50 with SNB-19 is 64 µM (inactive).
As to `COC1(OC)CCc2c(sc3ncnc(Nc4cccc(Br)c4)c23)C1`, the GI50 is 35.4 µM (inactive) in the assay on NCI-H23; 87.3 µM (inactive) in the assay with UACC-257; 43.3 µM (inactive) in the assay on PC-3; 25.1 µM (inactive) in the assay with 786-0; 33.4 µM (inactive) in the assay with KM12; 34.6 µM (inactive) with OVCAR-8. Also, the GI50 was > 100 µM (inactive) in the assay on HCC 2998; 74.5 µM (inactive) in the assay with HOP-62; 41.5 µM (inactive) with Malme-3M; 72.8 µM (inactive) with SF-295; 21.7 µM (inactive) with SW-620; 3.22 µM (inactive) in the assay on UO-31. Moreover, the GI50 is 23.1 µM (inactive) in the assay on T47D; 5.71 µM (inactive) in the assay on ACHN; 22.9 µM (inactive) with RXF 393; 40.7 µM (inactive) in the assay with NCI-H460; > 100 µM (inactive) in the assay with A498; 25.9 µM (inactive) in the assay on A549. Further, the GI50 in the assay with SNB-19 was 35.5 µM (inactive).
`CC(C)/C(Cl)=N\OC(=O)Nc1ccc(F)c([N+](=O)[O-])c1`: the GI50 in the assay on NCI-H23 was 17.1 µM (inactive); with UACC-257, 16.1 µM (inactive); in the assay with PC-3 it was 18.1 µM (inactive); in the assay on 786-0, 2.78 µM (inactive); in the assay on KM12 it was 14.6 µM (inactive); in the assay on OVCAR-8, 5.52 µM (inactive). Also, the GI50 was 10.5 µM (inactive) in the assay on HCC 2998; 17.8 µM (inactive) with HOP-62; 1.16 µM (inactive) in the assay on Malme-3M; 19.1 µM (inactive) in the assay on SF-295; 2.35 µM (inactive) with SW-620; 1.01 µM (active) in the assay on HL-60. For the same molecule, the GI50 in the assay on UO-31 was 6.56 µM (inactive); in the assay with ACHN, 1.79 µM (inactive); in the assay on RXF 393, 18 µM (inactive); with NCI-H460 it was 2.41 µM (inactive); with A498 it was 19.2 µM (inactive); with A549 it was 23.9 µM (inactive). Besides, the GI50 with SNB-19 is 16.7 µM (inactive).
As to `Oc1c(Cl)c(Cl)c(O)c(CCNc2ccc3ncccc3c2)c1Cl`, the GI50 is 10.2 µM (inactive) with NCI-H23; 17.9 µM (inactive) in the assay with UACC-257; 28 µM (inactive) in the assay with PC-3; 16.5 µM (inactive) in the assay with 786-0; 3.91 µM (inactive) with KM12; 12.1 µM (inactive) with OVCAR-8. Further, the GI50 in the assay with HCC 2998 is 12.9 µM (inactive); with HOP-62, 12.5 µM (inactive); with Malme-3M it was 18.6 µM (inactive); with SF-295, 11.4 µM (inactive); with SW-620, 4.63 µM (inactive); with HL-60 it was 5.07 µM (inactive). The GI50 was 12.2 µM (inactive) in the assay with UO-31; 11 µM (inactive) in the assay on T47D; 13.7 µM (inactive) in the assay on ACHN; 18.9 µM (inactive) in the assay with RXF 393; 18.9 µM (inactive) with NCI-H460; 17.2 µM (inactive) in the assay with A549. Further, the GI50 with SNB-19 was 13.3 µM (inactive).
Regarding `CC1=C(C(=O)OCCc2ccc([N+](=O)[O-])cc2)C(c2ccccc2C(F)(F)F)C(C(=O)OC(C)C)=C(C)N1` (stereo not given), the GI50 is 3.7 µM (inactive) in the assay on NCI-H23; 3.86 µM (inactive) with UACC-257; 1.98 µM (inactive) in the assay on PC-3; 4.16 µM (inactive) with 786-0; 2.88 µM (inactive) in the assay with KM12; 4.04 µM (inactive) in the assay on OVCAR-8. In addition, the GI50 with HCC 2998 is 4.92 µM (inactive); in the assay on HOP-62 it was 3.51 µM (inactive); in the assay on Malme-3M it was 3.49 µM (inactive); in the assay on SF-295 it was 2.68 µM (inactive); with SW-620, 3.68 µM (inactive); in the assay on HL-60 it was 1.79 µM (inactive). Further, the GI50 in the assay on UO-31 is 4.19 µM (inactive); in the assay with T47D, 3.12 µM (inactive); with ACHN, 3.06 µM (inactive); in the assay with RXF 393, 1.87 µM (inactive); in the assay on NCI-H460 it was 2.47 µM (inactive); in the assay on A549, 2.81 µM (inactive). In addition, in the assay with SNB-19, the GI50 was 4.85 µM (inactive).
For `CN1C(=O)C(c2c[nH]c3ccccc23)N(C)C(=O)C1c1c[nH]c2ccccc12` (stereo not given), the GI50 in the assay on NCI-H23 was > 100 µM (inactive); with UACC-257, > 100 µM (inactive); with PC-3 it was > 100 µM (inactive); in the assay with 786-0, 53.2 µM (inactive); in the assay with KM12 it was > 100 µM (inactive); with OVCAR-8, > 100 µM (inactive). Besides, the GI50 in the assay on HCC 2998 is > 100 µM (inactive); with HOP-62, 63.4 µM (inactive); in the assay on Malme-3M it was > 100 µM (inactive); in the assay on SF-295, > 100 µM (inactive); in the assay on SW-620, > 100 µM (inactive); in the assay on HL-60, > 100 µM (inactive). The GI50 is > 100 µM (inactive) in the assay with UO-31; > 100 µM (inactive) in the assay on T47D; 72.8 µM (inactive) with ACHN; 46.9 µM (inactive) in the assay on RXF 393; > 100 µM (inactive) in the assay on NCI-H460; > 100 µM (inactive) in the assay on A549. For the same molecule, the GI50 in the assay on SNB-19 was > 10 µM (inactive).
For the molecule `N#CCCN(CCC#N)c1ccc(C(/N=N/c2ccc(Cl)cc2)=N\c2ccccc2)cc1`, the GI50 in the assay on NCI-H23 is 12.6 µM (inactive); in the assay on UACC-257, 7.83 µM (inactive); with PC-3 it was 12.6 µM (inactive); in the assay with 786-0 it was 14.9 µM (inactive); in the assay on KM12, 11.4 µM (inactive); in the assay on OVCAR-8, 15.1 µM (inactive). Moreover, the GI50 is 6.55 µM (inactive) in the assay with HCC 2998; 13.2 µM (inactive) with HOP-62; 1.06 µM (active) in the assay on SF-295; 18 µM (inactive) in the assay on SW-620; 8.91 µM (inactive) in the assay with UO-31; 8.55 µM (inactive) in the assay with T47D. Also, the GI50 in the assay on ACHN was 13.4 µM (inactive); with RXF 393 it was 15.4 µM (inactive); with NCI-H460, 7.78 µM (inactive); with A498, 17.6 µM (inactive); with A549, 14.1 µM (inactive); in the assay on SNB-19, 12.2 µM (inactive).
As to `FC(F)(Sc1ccccn1)c1nc2ccccc2o1`, the GI50 with NCI-H23, with UACC-257, with PC-3, in the assay on 786-0, in the assay with KM12 and in the assay on OVCAR-8 was > 100 µM (inactive) each time. Also, the GI50 in the assay on HCC 2998 is > 100 µM (inactive); in the assay with HOP-62 it was > 100 µM (inactive); with Malme-3M, > 100 µM (inactive); in the assay on SF-295, > 100 µM (inactive); with SW-620 it was > 100 µM (inactive); in the assay on UO-31, 69.7 µM (inactive). In addition, the GI50 with T47D was > 100 µM (inactive); in the assay on ACHN, > 100 µM (inactive); with RXF 393, > 100 µM (inactive); with NCI-H460 it was > 100 µM (inactive); with A498 it was 38.7 µM (inactive); in the assay with A549 it was > 100 µM (inactive).

These data come from ChEMBL document CHEMBL1201862, “PubChem BioAssay data set” (2004).
